Reference: EP0394982A2, “Anthracycline derivatives with cytostatic activity” (BEHRINGWERKE Aktiengesellschaft, priority 1989, dated 1990)
Converted amounts (≈) assume the structure as drawn. Where two headings read alike, the source gives them in different places.

Test system: L1210 Leukämiezellen
Experiment: Colony formation of L1210 leukemia cells in soft agar (cytotoxicity in vitro)
Type: cell-based, Maus
Conditions: Mus musculus, colonies > 60 µm counted
Excerpt: Die zytostatische Wirksamkeit der erfindungsgemäßen Verbindungen wurde anhand von L1210 Leukämiezellen der Maus getestet. Hierzu wurde die Koloniebildung von L1210 Leukämiezellen in Agarplatten herangezogen. Diese Methode dient zum Nachweis des Einflusses der Testsubstanzen auf das Wachstumsverhalten der Zellen über 1 Stunde oder über mehrere Generationen. Bei einer Zellzykluszeit von 10-12 Stunden werden dabei in der Testzeit von 7 Tagen etwa 14 aufeinanderfolgende Generationen beobachtet. Die erfindungsgemäßen zytostatisch wirksamen Substanzen bewirken in diesem Test eine Reduktion der zu beobachtenden Koloniezahl gegenüber einer unbehandelten Kontrollprobe.
Verfahrensweise zur Ermittlung der Koloniebildung von L1210 Leukämiezellen in Soft-Agar
500 Leukämiezellen pro Platte wurden mit unterschiedlichen Konzentrationen der Testsubstanz 1 Stunde bei 37°C inkubiert. Anschließend wurden die Zellen zweimal mit McCoy5A-Medium gewaschen und schließlich in Petrischalen nach Zugabe von 0,3 % Agar ausgegossen. Kontrollen wurden lediglich mit frischem Medium inkubiert. Anstelle der einstündigen Inkubation wurden in manchen Fällen unterschiedliche Konzentrationen und Testsubstanzen der oberen Agarschicht zugemischt, um so eine kontinuierliche Exposition der Zellen über die gesamte Inkubationszeit zu erreichen. Nach Erstarren des Agars wurden die Platten im Brutschrank 7 Tage bei 37°C inkubiert (5 Vol.-% CO₂, 95 % relative Luftfeuchtigkeit). Anschließend wurde die Zahl der entstandenen Kolonien mit einem Durchmesser von mehr als 60 µm gezählt. Die Ergebnisse wurden angegeben als Koloniezahl in behandelten Agarplatten in Prozent der unbehandelten Kontrolle. Aus der so erhaltenen Dosiswirkungskurve wurde die IC₅₀ als Maß für die Wirksamkeit der Substanz ermittelt. Die Ergebnisse für die hier beschriebenen Verbindungen im Vergleich zu Adriamycin sind in Tabelle 1 zusammengefaßt.

[1] = L1210, 168 h, continuous exposure (substance mixed into upper agar layer), 7 days at 37°C, read-out: Dauerinkubation IC50
[2] = L1210, 1 h incubation at 37°C, cells washed, then 7 days in agar, read-out: 1h-Inkubation IC50

Structure (SMILES) | IC50 [1] | IC50 [2]
CC[C@@]1(O)C[C@H](O[C@H]2C[C@H](N(C)CC(=O)NCCN(C)C)[C@H](O)[C@H](C)O2)c2c(O)c3c(c(O)c2[C@H]1O)C(=O)c1cccc(O)c1C3=O [Beispiel 3] | 0.12 µg/mL (≈ 0.182 µM) | 0.26 µg/mL (≈ 0.395 µM)
CC[C@@]1(O)C[C@H](O[C@H]2C[C@H](N(C)CC(=O)NCCc3c[nH]cn3)[C@H](O)[C@H](C)O2)c2c(O)c3c(c(O)c2[C@H]1O)C(=O)c1cccc(O)c1C3=O [Beispiel 5, 7-O-(3′-N-Histaminocarbonylmethyl-3′-N-methyl-α-L-daunosaminyl)-β-rhodomycinon] | 0.31 µg/mL (≈ 0.455 µM) | 1 µg/mL (≈ 1.47 µM)
CC[C@@]1(O)C[C@H](O[C@H]2C[C@H](N(C)CC(=O)NCCN)[C@H](O)[C@H](C)O2)c2c(O)c3c(c(O)c2[C@H]1O)C(=O)c1cccc(O)c1C3=O [Beispiel 2, 7-0-(3′-N-Ethylendiaminocarbonylmethyl-3′-N-methyl-α-L-daunosaminyl)-β-rhodomycinon] | 0.35 µg/mL (≈ 0.556 µM) | 1 µg/mL (≈ 1.59 µM)
CC[C@@]1(O)C[C@H](O[C@H]2C[C@H](N(C)CC(=O)NN)[C@H](O)[C@H](C)O2)c2c(O)c3c(c(O)c2[C@H]1O)C(=O)c1cccc(O)c1C3=O [Beispiel 1, 7-0-(3′-N-Hydrazinocarbonylmethyl-3′-N-methyl-α-L-daunosaminyl)-β-rhodomycinon] | 0.32 µg/mL (≈ 0.532 µM) | 0.21 µg/mL (≈ 0.349 µM)
CC[C@@]1(O)C[C@H](O[C@H]2C[C@H](N(C)CC(=O)NCCc3ccc(O)cc3)[C@H](O)[C@H](C)O2)c2c(O)c3c(c(O)c2[C@H]1O)C(=O)c1cccc(O)c1C3=O [Beispiel 6, 7-O-(3′-N-Methyl-3′-N-tyraminocarbonylmethyl-α-L-daunosaminyl)-β-rhodomycinon] | 0.41 µg/mL (≈ 0.58 µM) | 1.3 µg/mL (≈ 1.84 µM)
CC[C@@]1(O)C[C@H](O[C@H]2C[C@H](N(C)CC(=O)NCCc3c[nH]c4ccccc34)[C@H](O)[C@H](C)O2)c2c(O)c3c(c(O)c2[C@H]1O)C(=O)c1cccc(O)c1C3=O [Beispiel 7, 7-O-(3′-N-Methyl-3′-N-tryptaminocarbonylmethyl-α-L-daunosaminyl)-β-rhodomycinon] | 0.36 µg/mL (≈ 0.493 µM) | 1.2 µg/mL (≈ 1.64 µM)
CC[C@@]1(O)C[C@H](O[C@H]2C[C@H](N(C)CC(=O)NCCCCN)[C@H](O)[C@H](C)O2)c2c(O)c3c(c(O)c2[C@H]1O)C(=O)c1cccc(O)c1C3=O [Beispiel 4] | 0.35 µg/mL (≈ 0.532 µM) | 1.3 µg/mL (≈ 1.98 µM)
